From ChEMBL document CHEMBL1144340, “QSAR for phospholipase A2 inhibitions by 1-acyloxy-3-N-n-octylcarbamyl-benzenes” (Bioorg Med Chem Lett, 2005)

These compounds were tested against T1, Acidic phospholipase A2 CM-I (Naja mossambica, UniProt P00602) (assay: Inhibitory activity against phospholipase A2).
T1 sequence (P00602 whole entry): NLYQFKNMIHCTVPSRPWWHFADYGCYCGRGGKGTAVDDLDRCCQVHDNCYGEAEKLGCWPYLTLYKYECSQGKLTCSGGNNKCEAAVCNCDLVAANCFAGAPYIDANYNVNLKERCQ

| Compound | Ki [µM] |
| --- | --- |
| CCCCCCCCNC(=O)Oc1cccc(OC(=O)CCCC)c1 | 75 |
| CCCCCCCCNC(=O)Oc1cccc(OC(=O)C(Cl)(Cl)Cl)c1 | 120 |
| CCCCCCCCNC(=O)Oc1cccc(OC(=O)C(c2ccccc2)(c2ccccc2)c2ccccc2)c1 | 38 |
| CCCCCCCCCCCCCCCC(=O)Oc1cccc(OC(=O)NCCCCCCCC)c1 | 9.6 |
| CCCCCCCCNC(=O)Oc1cccc(OC(=O)CCCCCCC)c1 | 27 |
| CCCCCCCCNC(=O)Oc1cccc(OC(=O)C(C)(C)C)c1 | 55 |
| CCCCCCCCNC(=O)Oc1cccc(OC(C)=O)c1 | 98 |
| CCCCCCCCNC(=O)Oc1cccc(OC(=O)c2ccccc2)c1 | 95 |
| CCCCCCCCNC(=O)Oc1cccc(OC(=O)Cc2ccccc2)c1 | 73 |
